Experimental findings from ChEMBL document CHEMBL5653631, “A Potent and Selective ULK1 Inhibitor Suppresses Autophagy and Sensitizes Cancer Cells to Nutrient Stress” (iScience, 2018) are described below.

Assay [1] addresses Serine/threonine-protein kinase pim-2 (Homo sapiens) (UniProt Q9P1W9). Put plainly: Inhibition of human recombinant PIM2 at 40 nM related to control ULK1.
Assay [2] has as its target Epidermal growth factor receptor (Homo sapiens) (UniProt P00533). Put plainly: Inhibition of human recombinant EGFR at 500 nM in presence of ATP by radiometric assay relative to control.
For assay [3], the target named is T1, Ephrin type-B receptor 3 (Homo sapiens) (UniProt P54753).
T1 sequence (whole entry): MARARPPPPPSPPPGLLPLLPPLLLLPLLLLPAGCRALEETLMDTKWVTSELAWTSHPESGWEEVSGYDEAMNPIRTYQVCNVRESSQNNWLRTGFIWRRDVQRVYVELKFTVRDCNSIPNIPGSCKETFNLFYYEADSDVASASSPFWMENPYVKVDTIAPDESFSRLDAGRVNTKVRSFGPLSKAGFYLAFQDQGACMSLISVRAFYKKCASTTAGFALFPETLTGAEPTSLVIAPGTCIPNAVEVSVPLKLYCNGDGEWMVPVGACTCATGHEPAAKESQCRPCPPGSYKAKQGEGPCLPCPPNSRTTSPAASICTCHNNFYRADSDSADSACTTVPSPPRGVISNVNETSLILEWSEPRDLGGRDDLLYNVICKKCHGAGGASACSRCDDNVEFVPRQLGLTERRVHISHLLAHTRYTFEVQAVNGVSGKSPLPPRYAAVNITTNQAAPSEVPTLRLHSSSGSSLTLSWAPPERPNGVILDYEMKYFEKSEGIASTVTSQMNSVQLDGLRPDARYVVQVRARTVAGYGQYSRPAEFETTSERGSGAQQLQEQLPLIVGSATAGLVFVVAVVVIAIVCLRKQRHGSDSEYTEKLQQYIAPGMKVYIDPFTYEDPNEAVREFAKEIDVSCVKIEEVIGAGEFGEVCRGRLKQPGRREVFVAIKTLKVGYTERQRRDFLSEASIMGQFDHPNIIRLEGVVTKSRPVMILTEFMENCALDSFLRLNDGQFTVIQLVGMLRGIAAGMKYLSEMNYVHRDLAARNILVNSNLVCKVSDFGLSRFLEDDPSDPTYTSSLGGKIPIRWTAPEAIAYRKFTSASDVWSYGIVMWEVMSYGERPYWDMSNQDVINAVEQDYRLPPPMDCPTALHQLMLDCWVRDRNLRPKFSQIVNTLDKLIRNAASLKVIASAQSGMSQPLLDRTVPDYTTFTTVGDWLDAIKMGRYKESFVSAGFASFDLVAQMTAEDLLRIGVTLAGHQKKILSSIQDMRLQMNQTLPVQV
Put plainly: Inhibition of human recombinant EphB3 at 500 nM related to control ULK1.

The target in assay [4] is T2, cAMP-dependent protein kinase catalytic subunit PRKX (Homo sapiens) (UniProt P51817).
T2 sequence (whole entry): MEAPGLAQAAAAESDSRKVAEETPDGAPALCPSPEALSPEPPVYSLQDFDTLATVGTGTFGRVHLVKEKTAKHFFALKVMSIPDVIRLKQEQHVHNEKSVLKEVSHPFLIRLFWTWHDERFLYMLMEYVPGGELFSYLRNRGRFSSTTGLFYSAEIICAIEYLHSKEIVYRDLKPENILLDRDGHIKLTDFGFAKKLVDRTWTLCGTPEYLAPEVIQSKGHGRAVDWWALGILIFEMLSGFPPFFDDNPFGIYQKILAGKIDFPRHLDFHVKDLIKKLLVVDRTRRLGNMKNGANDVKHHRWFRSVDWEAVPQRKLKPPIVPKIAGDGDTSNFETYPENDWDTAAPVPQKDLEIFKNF
Put plainly: Inhibition of human recombinant PRKX at 500 nM related to control ULK1.

The target of assay [5] is T3, Dual specificity tyrosine-phosphorylation-regulated kinase 3 (Homo sapiens) (UniProt O43781).
T3 sequence (whole entry): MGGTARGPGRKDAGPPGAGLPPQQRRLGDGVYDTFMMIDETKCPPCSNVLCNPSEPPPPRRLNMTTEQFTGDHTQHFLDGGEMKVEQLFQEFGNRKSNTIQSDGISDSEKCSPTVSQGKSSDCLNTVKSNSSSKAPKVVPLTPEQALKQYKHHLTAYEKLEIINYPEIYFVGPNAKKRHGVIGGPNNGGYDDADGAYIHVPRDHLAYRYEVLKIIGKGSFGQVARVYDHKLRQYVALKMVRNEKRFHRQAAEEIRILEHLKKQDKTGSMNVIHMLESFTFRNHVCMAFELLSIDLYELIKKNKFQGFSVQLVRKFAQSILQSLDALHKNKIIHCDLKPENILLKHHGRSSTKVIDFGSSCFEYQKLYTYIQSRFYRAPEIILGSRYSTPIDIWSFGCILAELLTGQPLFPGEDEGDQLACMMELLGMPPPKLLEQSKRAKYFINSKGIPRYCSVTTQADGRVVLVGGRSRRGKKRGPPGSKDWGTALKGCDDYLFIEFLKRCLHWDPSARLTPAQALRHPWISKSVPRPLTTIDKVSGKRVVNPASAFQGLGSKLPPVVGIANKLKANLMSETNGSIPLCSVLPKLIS
Put plainly: Inhibition of human recombinant DYRK3 at 15 nM in presence of ATP by radiometric assay relative to control.

For assay [6], the target named is G protein-coupled receptor kinase 6 (Homo sapiens) (UniProt P43250). Put plainly: Inhibition of human recombinant GPRK6 at 15 nM in presence of ATP by radiometric assay relative to control.
Chain of G protein-coupled receptor kinase 6 (Homo sapiens) (P43250 whole entry, looked up): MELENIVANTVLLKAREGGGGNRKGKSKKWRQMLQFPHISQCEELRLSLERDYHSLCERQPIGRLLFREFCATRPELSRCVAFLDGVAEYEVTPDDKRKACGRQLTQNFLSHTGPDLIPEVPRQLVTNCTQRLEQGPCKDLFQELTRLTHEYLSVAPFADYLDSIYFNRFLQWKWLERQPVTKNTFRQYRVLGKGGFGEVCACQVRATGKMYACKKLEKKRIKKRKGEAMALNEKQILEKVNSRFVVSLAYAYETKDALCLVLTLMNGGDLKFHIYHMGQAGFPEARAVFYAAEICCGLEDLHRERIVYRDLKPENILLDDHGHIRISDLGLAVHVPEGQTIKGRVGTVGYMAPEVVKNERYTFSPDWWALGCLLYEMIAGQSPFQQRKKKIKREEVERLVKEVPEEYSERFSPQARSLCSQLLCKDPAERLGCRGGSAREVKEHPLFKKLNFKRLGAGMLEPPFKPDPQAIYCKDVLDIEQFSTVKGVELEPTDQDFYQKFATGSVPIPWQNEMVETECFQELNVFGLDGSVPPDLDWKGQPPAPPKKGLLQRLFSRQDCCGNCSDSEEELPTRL

By inhibition is commonly meant the percentage by which the read-out fell short of the control.

Chain of Serine/threonine-protein kinase pim-2 (Homo sapiens) (Q9P1W9 whole entry, looked up): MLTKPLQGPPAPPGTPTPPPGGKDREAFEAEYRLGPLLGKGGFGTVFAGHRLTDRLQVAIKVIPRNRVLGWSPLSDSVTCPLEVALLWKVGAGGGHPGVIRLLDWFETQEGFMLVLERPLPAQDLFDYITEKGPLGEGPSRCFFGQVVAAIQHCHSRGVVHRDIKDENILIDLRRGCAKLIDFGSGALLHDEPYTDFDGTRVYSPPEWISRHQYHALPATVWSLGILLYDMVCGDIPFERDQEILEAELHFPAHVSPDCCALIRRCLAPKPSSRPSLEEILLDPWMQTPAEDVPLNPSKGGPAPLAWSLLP
Chain of Epidermal growth factor receptor (Homo sapiens) (P00533 whole entry): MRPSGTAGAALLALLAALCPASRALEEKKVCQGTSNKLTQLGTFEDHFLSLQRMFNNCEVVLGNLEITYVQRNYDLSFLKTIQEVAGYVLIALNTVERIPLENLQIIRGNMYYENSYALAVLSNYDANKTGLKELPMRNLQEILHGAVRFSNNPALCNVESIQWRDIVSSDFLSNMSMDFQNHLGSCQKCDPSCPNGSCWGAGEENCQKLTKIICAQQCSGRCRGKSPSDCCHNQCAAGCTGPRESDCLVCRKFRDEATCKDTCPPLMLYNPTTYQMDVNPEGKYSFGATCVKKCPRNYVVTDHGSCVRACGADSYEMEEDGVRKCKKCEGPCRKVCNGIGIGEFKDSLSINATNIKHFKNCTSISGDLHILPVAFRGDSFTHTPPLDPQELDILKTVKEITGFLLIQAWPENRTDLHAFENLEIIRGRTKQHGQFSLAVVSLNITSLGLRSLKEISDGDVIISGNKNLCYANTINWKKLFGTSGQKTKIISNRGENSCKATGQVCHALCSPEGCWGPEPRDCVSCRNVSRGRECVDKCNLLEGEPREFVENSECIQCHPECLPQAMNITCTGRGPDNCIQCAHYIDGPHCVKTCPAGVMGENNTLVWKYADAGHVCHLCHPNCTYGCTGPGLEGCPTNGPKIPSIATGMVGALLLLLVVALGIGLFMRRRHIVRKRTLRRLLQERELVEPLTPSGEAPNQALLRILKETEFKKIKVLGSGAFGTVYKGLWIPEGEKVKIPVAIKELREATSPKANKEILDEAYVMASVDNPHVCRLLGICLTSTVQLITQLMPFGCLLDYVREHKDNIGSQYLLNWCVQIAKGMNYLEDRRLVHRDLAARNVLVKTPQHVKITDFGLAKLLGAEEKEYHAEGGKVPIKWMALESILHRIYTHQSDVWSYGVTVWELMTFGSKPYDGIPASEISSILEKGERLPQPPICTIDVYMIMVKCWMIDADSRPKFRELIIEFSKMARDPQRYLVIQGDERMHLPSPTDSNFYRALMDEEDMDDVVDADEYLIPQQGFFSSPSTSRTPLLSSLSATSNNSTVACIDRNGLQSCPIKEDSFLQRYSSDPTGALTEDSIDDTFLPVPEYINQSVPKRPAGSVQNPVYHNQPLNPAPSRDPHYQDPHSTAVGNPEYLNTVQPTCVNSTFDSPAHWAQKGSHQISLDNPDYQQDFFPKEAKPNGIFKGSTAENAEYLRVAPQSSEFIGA

For the molecule `O=C(N[C@@H](C1CC1)C(F)(F)F)c1cc(-c2cnn3cc(-c4ccc(F)cc4)cnc23)cs1`, the fold change (FC) in assay [1] worked out at 0.04.
Take `CNC(=O)c1ccccc1Oc1nc(Nc2cc(OC)c(OC)c(OC)c2)ncc1Br`: the inhibition in assay [2] was determined as 3%. Besides, the fold change (FC) in assay [3] amounted to 0; in assay [4], 0.22.
For `CC(C)[C@H](NC(=O)c1cc(-c2cnn3cc(-c4ccc(OCCN5CCCCC5)cc4)cnc23)cs1)C(F)(F)F`, the values for the inhibition in assay [5] and in assay [6] were 23% and 0%, respectively.
